Experimental data reported in US12686668B2, “Leukotriene synthesis inhibitors” (Naegis Pharmaceuticals Inc., priority 2019, dated 2026).
Where two headings read alike, the source gives them in different places.

Columns and labels:
[1] = target: T1, recombinant human leukotriene A4 hydrolase enzyme (Homo sapiens, UniProt P09960); assay: Amino-peptidase assay, PGP; type: biochemical; details: concentration not given
T1 construct: purchased Cayman Chemical 10007817
T1 sequence (P09960 1-611): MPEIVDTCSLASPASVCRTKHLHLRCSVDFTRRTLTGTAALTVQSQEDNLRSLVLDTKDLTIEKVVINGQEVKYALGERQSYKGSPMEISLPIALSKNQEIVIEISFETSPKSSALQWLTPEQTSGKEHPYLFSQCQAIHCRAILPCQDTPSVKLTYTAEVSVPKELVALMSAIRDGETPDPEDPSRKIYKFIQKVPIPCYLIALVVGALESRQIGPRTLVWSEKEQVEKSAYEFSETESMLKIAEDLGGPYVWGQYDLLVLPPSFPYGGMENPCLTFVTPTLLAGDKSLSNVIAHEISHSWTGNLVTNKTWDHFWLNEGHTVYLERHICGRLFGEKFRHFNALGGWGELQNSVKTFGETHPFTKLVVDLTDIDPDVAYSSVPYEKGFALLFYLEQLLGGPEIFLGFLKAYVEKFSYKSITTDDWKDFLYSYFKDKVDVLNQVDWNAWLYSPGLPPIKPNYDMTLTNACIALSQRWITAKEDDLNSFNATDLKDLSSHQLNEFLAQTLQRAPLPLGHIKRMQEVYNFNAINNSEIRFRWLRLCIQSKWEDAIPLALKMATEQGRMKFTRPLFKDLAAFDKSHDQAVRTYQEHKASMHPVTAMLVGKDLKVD
Description: A series of compound concentrations were pre-incubated with 50 ng of recombinant human leukotriene A4 hydrolase enzyme (Cayman Chemical, 10007817) in 50 L assay buffer (50 mM Tris-HCl, 100 mM KCl). The reaction was stimulated by adding 50 L 1 mM proline-glycine-proline (Bachem, H-7284) and incubated for 30 minutes at 37° C. The reaction was stopped with the addition of 150 μL of glacial acetic acid. The amount of free proline released from the peptide was detected through a reaction with ninhydrin. 150 μL of 25 mg/mL ninhydrin (BDH, B10132) in 60:40 acetic acid/water was added to each sample, and boiled for 30 minutes at 100° C. and once samples had cooled to room temperature, 350 μL of toluene was added to extract the ninhydrin reaction product. The amount of free proline was determined by comparing the absorbance at 520 nm to the L-proline (Sigma Aldrich, 81709) reference standard. Inhibition of free proline production was calculated based on control samples.

[2] = target: T1, recombinant human leukotriene A4 hydrolase enzyme; assay: Amino-peptidase assay, alanine-4-nitroanalide; type: biochemical; details: negative values = augmented peptidase activity, read-out: % Inhibition aminopeptidase-Alanine-4-nitroanalide activity of LTA4H (3 μM)
Description: A series of compound concentrations were pre-incubated in the absence of light with 0.5 μg of recombinant human leukotriene A4 hydrolase enzyme (Cayman Chemical 10007817) in 50 μL assay buffer (50 mM Tris-HCl, 100 mM KCl). The reaction was stimulated by adding 50 μL 6 mM alanine-4-nitroanilide (Sigma Aldrich A9325) in assay buffer. The amount of amino-peptidase activity was measured by determining the change in absorbance at 405 nm due to 4-nitroanaline production and comparing the rate of change to a reference standard (Sigma Aldrich 185310). Amino-peptidase activity was compared to control samples and the level of inhibition was calculated. Compounds that augment peptidase activity are represented by negative values.

[3] = tested on: LTC4 production in MC/9 cells; assay: MC/9 HPLC assay, inhibition of LTC4 production; type: cell-based; details: Mus musculus; for inhibition at 3 µM: MC9, 3 μM, A23187 stimulated
In short: (§1)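 MC/9 cells (3×10^6 in HBSS) pre-incubated 30 min with compound, then stimulated 20 min at room temperature with 1 μM A23187. After methanol quench and C18 solid-phase extraction, LTB4 and LTC4 quantified by HPLC against reference standards; inhibition relative to control samples.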

[4] = tested on: LTB4 production in MC/9 cells; assay: MC/9 HPLC assay, inhibition of LTB4 production; type: cell-based; details: Mus musculus
In short: as §1

[5] = tested on: LTB4 production in porcine or human whole blood; assay: Whole blood HPLC assay, inhibition of LTB4 production; type: cell-based; details: 5 point curve, porcine or human whole blood (not specified)
Description: Porcine or human whole blood (1 mL) was pre-incubated with a series of concentrations of compound solubilized in DMSO for 30 minutes. Production of leukotrienes were stimulated with the addition of 20 μM calcium ionophore (A23187), diluted from a 4 mM DMSO stock in HBSS, and incubated at room temperature for 20 minutes. In porcine blood 20 μM arachidonic acid was added in addition to the calcium ionophore. The blood was centrifuged at 2,000 rpm for 15 minutes, and the plasma fraction removed for further processing. Plasma samples were diluted with 500 μL acidified water (HCl pH 3.0) and loaded onto C18 SEP-PAK columns (Canadian Lifesciences IS12000) for solid phase extraction. The leukotrienes were analyzed by HPLC using an ACE C18 column (4.5 mm×150 mm, 5 m) eluted with acetonitrile/methanol/water mixture with H3PO4, pH 3.5 (37:26:37) with a flow rate of 1.8 mL/min. The amount of LTB4 (Cayman Chemical, 20110) was calculated based on reference standards and the level of inhibition of LTB4 production induced by the test compounds was calculated relative to control samples. The results provided in Table 3 are IC50 values calculated based on a 5 point curve, where Compound No. refers to the compounds identified in Table 1.

[6] = MC9, Table 2 column 3, no concentration in head (1 μM according to b732), read-out: % Inhibition LTC4
[7] = MC9, Table 2 column 4, no concentration in head (1 μM according to b732), read-out: % Inhibition LTB4

Row | Compound | % Inhibition aminopeptidase-PGP activity of LTA4H [1] | inhibition at 3 µM [2] [%] | inhibition at 1 µM [3, 6] [%] | inhibition at 1 µM [4, 7] [%] | inhibition at 1 µM ([3]; MC9, 1 μM, read-out: % inhibition LTC4 (1 μM)) [%] | inhibition at 3 µM [3] [%] | IC50 [5] [µM] | inhibition at 1 µM ([4]; MC9, 1 μM, read-out: % inhibition LTB4 (1 μM)) [%]
1 | CCC(=O)CCc1ccc(Oc2nc3ccccc3s2)c(OC(C)C)c1 [Compound 112, 1-[4-(1,3-benzothiazol-2-yloxy)-3-(iso-propyloxy)-phenyl]pentan-3-one] | <25% |  |  |  |  |  |  | 
2 | CC(O)(CCc1ccc(Oc2nc3ccccc3o2)cc1)c1ccccc1 (stereo not shown) [Compound 147, 4-[4-(1,3-benzoxazol-2-yloxy)phenyl]-2-phenylbutan-2-ol] | 25-50% | 50 to 75 | 30 to 50 | > 90 |  |  |  | 
3 | CCC(=O)CCc1ccc(Oc2nc3ccccc3s2)c(Cl)c1 [Compound 149, 1-[4-(1,3-benzothiazol-2-yloxy)-3-chlorophenyl]pentan-3-one] | 25-50% | < 25 | 30 to 50 | 50 to 70 |  |  |  | 
4 | CCC(O)(CCc1ccc(Oc2nc3ccccc3s2)cc1)C(F)(F)F (stereo not shown) [Compound 150, 1-[4-(1,3-benzothiazol-2-yloxy)phenyl]-3-(trifluoromethyl)pentan-3-ol] | <25% | 25 to 50 | 10 to 30 | 50 to 70 | 10 to 30 | 70 to 90 | 1 to 10 | 50 to 70
5 | CCC(=O)CCc1ccc(Oc2nc3ccccc3s2)c(F)c1 [Compound 152, 1-[4-(1,3-benzothiazol-2-yloxy)-3-fluorophenyl]-pentan-3-one] | 25-50% | < 25 | 30 to 50 | 50 to 70 |  | 30 to 50 |  | 
6 | CNC(c1ccc(Oc2nc3ccccc3s2)cc1)C(F)(F)F (stereo not shown) [Compound 178, 1-[4-(1,3-benzothiazol-2-yloxy)phenyl]-2,2,2-trifluoro-N-methylethanamine] | 70-90% | 70 to 90 |  |  |  | < 10 |  | 
7 | OC(c1ccc(Oc2nc3c(F)cc(F)cc3s2)cc1)C(F)(F)F (stereo not shown) [Compound 179, 1-{4-[(4,6-difluoro-1,3-benzothiazol-2-yl)oxy]phenyl}-2,2,2-trifluoroethanol] | >75% | > 75 |  |  |  | 10 to 30 |  | 
8 | CC(O)(c1ccc(Oc2nc3c(F)cc(F)cc3s2)cc1)C(F)(F)F (stereo not shown) [Compound 181, 2-{4-[(4,6-difluoro-1,3-benzothiazol-2-yl)oxy]phenyl}-1,1,1-trifluoropropan-2-ol] | >75% | 0 to 50 |  |  |  | < 10 |  | 
9 | COc1cc(CCC(C)(O)C(F)(F)F)ccc1OCc1ccc2ccccc2n1 (stereo not shown) [Compound 184, 1,1,1-trifluoro-4-[3-methoxy-4-(quinolin-2-ylmethoxy)phenyl]-2-methylbutan-2-ol] | 25-50% | < 25 |  |  |  |  | 0.1 to 1 | 
10 | CCC(O)CCc1ccc(Oc2nc3ccccc3s2)c(OC2CCCC2)c1 (stereo not shown) [Compound 186, 1-[4-(1,3-benzothiazol-2-yloxy)-3-(cyclopentyloxy)-phenyl]pentan-3-ol] | >75% | > 75 |  |  |  | 70 to 90 |  | 
11 | CCC(O)CCc1ccc(Oc2nc3ccccc3s2)c(OCC2CC2)c1 (stereo not shown) [Compound 187, 1-[4-(1,3-benzothiazol-2-yloxy)-3-(cyclopropylmethoxy)-phenyl]-pentan-3-ol] | 50-75% | > 75 |  |  |  | 50 to 70 |  | 
12 | CCC(CCc1ccc(Oc2nc3ccccc3s2)c(OC)c1)N1CCN(C)CC1 (stereo not shown) [Compound 188, 1-[4-(1,3-benzothiazol-2-yloxy)-3-methoxyphenyl]-3-(4-methylpiperazinyl-1yl)pentane] | 25-50% | < 25 |  |  |  | 10 to 30 |  | 
13 | CC(CCc1ccc(OCc2ccc3ccccc3n2)cc1)N1CCCC1 (stereo not shown) [Compound 190] | 25-50% | < 25 |  |  |  | 30 to 50 |  | 
